“And” between values parts separate entries of the source, which are not always exact repeats. Identical values can stand only once. The source made the active and inactive calls.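 How the source made its calls: active means compounds giving half or more protection of infected cells from virus-caused growth loss, again on retest; inactive means the rest.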
System: CEM cells HIV-1 protection, formazan growth assay
Experiment: NCI AIDS Antiviral Assay
Conditions: for IC50: measured here: growth of uninfected CEM cells
In short: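 CEM (human) cells, HIV-1 infected vs uninfected, 5-point dosing, formazan growth read-out. Retest threshold 50% protection.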

Structure (SMILES) | EC50 [µM] | IC50 | outcome
CC(C)=CCSC1CC2C(CC1(C)O)C2(C)C (stereo unspecified) | > 200 | 110 µM and 112 µM | 
CCOC(=O)C[C@]1(O)[C@@H](CO[Si](C)(C)C(C)(C)C)O[C@@H](n2ccc(=O)[nH]c2=O)[C@@H]1O[Si](C)(C)C(C)(C)C | > 200 | 10.7 µM | 
CCN(CC)c1c(C)nnc2c(C)c(-c3ccccc3)nn12 | > 3.55 | > 3.55 µM | 
CC1(C)C2CCC1(C)C(N=C(N)CSS(=O)(=O)O)C2 (stereo unspecified) | > 200 | 49 µM and 30.9 µM | 
Cc1cccc(N=C2NC(=O)C(CC(=O)Nc3ccccc3Cl)S2)c1 (stereo unspecified) | > 10 | > 10 µM | 
COc1cc(CNC(=O)CCCCCCCCCCSSCCCCCCCCCCC(=O)NCc2ccc(O)c(OC)c2)ccc1O | > 200 |  | 
C=C(Br)C[N+](CC)(CC)CC | > 200 | > 200 µM | 
Cn1cc(C(=O)NCCC(=N)N)cc1NC(=O)C1=[N+](C)C=C(NC(=O)c2cccc(C(=O)NC3=CC(C(=O)Nc4cc(C(=O)NCCC(=N)N)cn4C)=[N+](C)C3)c2)C1 | 3.47 | 74.1 µM | 
CCOC(=O)C1=CCC2c3[nH]c4ccccc4c3CCN2C1=O (stereo unspecified) | > 16.2 | 9.12 µM | 
N#CNC1=NC(C(=O)O)CC(=O)N1CCc1c[nH]c2ccccc12 (stereo unspecified) | > 200 | 50.1 µM | 
C[Si](C)(C)C(Sc1ccccc1)(Sc1ccccc1)Sc1ccccc1 |  |  | inactive
Cc1nn(C(=O)CC(=O)Nc2ccccc2Cl)c(C)c1N=Nc1ccccc1F |  |  | inactive
Nn1c(Cc2ccccc2)nnc1Cc1ccccc1 | > 200 | > 200 µM | 
Cc1ccc(-n2c(N)c(C#N)c3c(c2=S)CCC3)cc1 | > 129 | > 129 µM | 
Cc1nc2cc(F)c(F)cc2[nH]c1=O | > 200 | 174 µM | 
OCCOc1ccc(-c2cc(-c3ccccn3)nc(-c3ccccn3)c2)cc1 | > 3.72 | 0.646 µM | 
O=c1ccc(=O)n(-c2ccccc2)[nH]1 | > 955 | > 955 µM | 
CC1(C)CCc2cc3c(O)c(-c4ccccc4)c(=O)oc3cc2O1 | > 200 | 77.6 µM | 
COC1=CC(=O)O[C@]2(C)OCC(C)C(O)=C12 (stereo partly specified) | > 1100 | > 1100 µM | 
COC(=O)[C@@H]1N2C(=S)N(c3ccccc3)C(=O)[C@H]2SC1(C)C | > 200 | > 200 µM | 
O=C(O)c1c(CC(Cc2ccc3c(c2)CCCC3)C(=O)O)ccc2c1CCCC2 (stereo unspecified) | > 200 | 141 µM | 
c1ccc(SC(CCCCC(Sc2ccccc2)Sc2ccccc2)Sc2ccccc2)cc1 |  |  | inactive

Structure (SMILES) | EC50 [µM] | IC50 | outcome
CCc1ccccc1NC(=O)C1=C(C)NC(C)=C(C(=O)Nc2ccccc2CC)C1c1ccc(NC(C)=O)cc1 | > 34.7 | > 34.7 µM | 
COC(=O)/C(=N\Nc1nnc(C)n1N)C(C#N)c1ccc(Cl)cc1 (stereo unspecified) | > 724 | 372 µM | 
CCOC(=O)Nc1cc2c(c(N)n1)N=C(c1ccc(Cl)cc1Cl)CN2 | > 10 | 0.017 µM | 
CCn1c2ccccc2c2ccc(C3C(C(=O)OC)=C(C)NC(C)=C3C(=O)OC)cc21 |  |  | inactive
CN1C(=O)C2(Cc3cn(C45CC67SSC(CO)(C(=O)N6C4Nc4ccccc45)N(C)C7=O)c4ccccc34)SSC1(CO)C(=O)N2C (stereo unspecified) | > 0.2 | 0.00661 µM | 
CCCCNC1CCC2(SCCS2)c2[nH]c3ccccc3c21 (stereo unspecified) | > 200 | 1.26 µM | 
CCOC(=O)C(=CNC(=S)Nc1ccccc1)C(=O)OCC | > 200 | > 200 µM | 
COc1ccc2nc(NC(=O)C(=O)C(C#N)c3ccc([N+](=O)[O-])cc3)sc2c1 (stereo unspecified) |  |  | inactive
O=C(N/N=C/c1ccccc1O)c1ccccc1O | > 20 | 2.34 µM | 
CCCCCCCCCC(=O)CC(=O)c1ccc(O)cc1O | > 117 | 69.2 µM | 
CC(C)NC(=O)NCCc1c[nH]c2ccccc12 | > 200 | > 200 µM | 
C=CC1(C)CCC2C(=CCC3C2(C)CC(O)C(O)C3(C)COC2OC(CO)C(O)C(O)C2O)C1 (stereo unspecified) | > 200 | 39.8 µM | 
C[C@H](NS(=O)(=O)c1ccc(NC(=O)c2ccccc2)cc1)C(=O)O |  |  | inactive
CC1(O)c2ccccc2CCc2ccccc21 | > 32.4 | > 32.4 µM | 
COc1ccc(/C=C2/SC(c3ccc(Cl)cc3)N(NC(=O)CCCCCCCCC(=O)NN3C(=O)/C(=C\c4ccc(OC)c(OC)c4)SC3c3ccc(Cl)cc3)C2=O)cc1OC (stereo unspecified) | 67.6 | 182 µM | 
C1CSC[C@H]2COC[C@@H](CSCCS1)S2 | > 631 | > 631 µM | 
CCCCCCCC(=O)OCC1OC(OC)C(NC(=O)N(CCCl)N=O)C(O)C1O (stereo unspecified) | > 79.4 | 8.51 µM | 
COC(=O)c1cc(CC2Cc3cc4c(cc3C2=O)CCC4)cc2c1CCC2 (stereo unspecified) | 33.1 | > 200 µM | 
CCOc1ccccc1NC(=O)CCC(=O)OC | > 1000 | > 1000 µM | 
CN1C/C(=C\c2cccs2)C2=NN(c3ccccc3)C(c3cccs3)C2C1 (stereo unspecified) | > 200 | 10.7 µM | 
O=C1Cc2c([nH]c3ccccc23)-c2ccccc2N1 | > 105 | 69.2 µM | 
O=C1C=CC(=O)C(CNc2ccc(C(=O)OC34CC5CC(CC(C5)C3)C4)cc2)=C1 | > 200 | 10.5 µM | 

Structure (SMILES) | EC50 [µM] | IC50 | outcome
CCOC(=O)c1ccc(CS(=O)(=O)c2ccc(OC)cc2)c([N+](=O)[O-])c1 | > 95.5 | > 95.5 µM | 
CC(C)C[C@H]1[C@@H](OCc2ccccc2)COS(=O)N1[C@H](C)c1ccccc1 (stereo partly specified) | > 200 | 9.55 µM | 
O=c1/c(=N\O)c(=O)c2ccccc2/c1=N\O | > 200 | 10 µM | 
Clc1ccc(C2ON2C2CCCCC2)cc1 (stereo unspecified) |  |  | inactive
COc1cc(OC)c(-n2[nH]c(=O)n(C)c2=O)c(OC)c1 | > 200 | > 200 µM | 
CN(C(=O)Cc1ccccc1)n1cn[n+](CC(=O)OC(C)(C)C)c1 | > 200 | > 200 µM | 
Nc1nc(Cl)c(N=Nc2ccc(Cl)cc2)c(NCC2(CO)CC(OCc3ccccc3)C2)n1 (stereo unspecified) | > 20 | 14.5 µM | 
CCOC(=O)NNP(=O)(NNC(=O)OCC)c1ccccc1 | > 110 | > 110 µM | 
O=C1NC(=O)[C@@]2(CCOc3ccc(F)cc32)N1 | > 741 | 661 µM | 
O=C(NNc1nc2ccccc2n2cccc12)c1cnccn1 | > 2 | 0.417 µM | 
CC[C@H]1CN2CCc3c([nH]c4ccccc34)C2C[C@@H]1CCO (stereo partly specified) | > 120 | > 120 µM | 
N=C1C(=N)c2ccccc2-c2ccccc21.N=C1C(=N)c2ccccc2-c2ccccc21.[Cl-].[Rh+3].c1ccc(-c2ccccn2)nc1 |  |  | inactive
Cc1csc2c(=O)n(COCc3ccccc3)c(=O)[nH]c12 | > 200 | > 200 µM | 
CC1=CC(O)(c2ccccc2)C(N2CCOCC2)N1O (stereo unspecified) | > 200 | > 200 µM | 
CCOC(=O)C(COS(C)(=O)=O)(COS(C)(=O)=O)C(=O)OCC | > 251 | 209 µM | 
NC(c1ccccc1)P(=O)(O)O (stereo unspecified) | > 200 | > 200 µM | 
COc1cc(/C=C2\C(=O)N(C(=O)Cc3ccccc3)N=C2C)ccc1O | > 53.7 | > 53.7 µM | 
Cc1cc(NC2=NCCO2)c2c(c1C)CCCC2 | > 200 | 29.5 µM | 
CC1=NC(C)(C)[N+]([O-])=C1 |  |  | inactive
COS(=O)(=O)c1c(N)n(C)c(=O)n(C)c1=O | > 200 | 66.1 µM | 
CCCC(C)C[C@@H](C)CC(C)/C=C(\C)c1oc(=O)c(C)c(O)c1C (stereo partly specified) (tested in a mixture with another compound) |  |  | inactive
N#C/C(=C\c1ccc2ccccc2c1)C(=O)c1ccccc1 | > 7.08 | > 7.08 µM | 

Structure (SMILES) | EC50 [µM] | IC50 | outcome
Cc1cc(C)c2c(c1)C(=O)C1(C2)Cc2c(ccc(C)c2C)C1=O (stereo unspecified) | > 100 | > 100 µM | 
CCOC(=O)/C=C/c1ccc(OC)cc1 | > 34.7 | > 34.7 µM | 
COc1ccc(CN2CCCN(Cc3ccc(OC)cc3)S2)cc1 | > 75.9 | 31.6 µM | 
CC#N.CC#N.COC(=O)[C@H]1COC(=O)[N-]1.COC(=O)[C@H]1COC(=O)[N-]1.COC(=O)[C@H]1COC(=O)[N-]1.COC(=O)[C@H]1COC(=O)[N-]1.[Rh+2].[Rh+2] | > 200 | > 200 µM | 
CC(=O)OCC(OC(C)=O)C(OC(C)=O)C(C=NN(C(C)=O)S(=O)(=O)c1ccc(/C=C2\NC(=O)NC2=O)cc1)OC(C)=O (stereo unspecified) | > 200 | 97.7 µM | 
COc1ccc(C(Nc2ccc([N+](=O)[O-])cc2)P(=O)(c2ccccc2)c2ccccc2)cc1 (stereo unspecified) | > 200 | 10.5 µM | 
COc1ccc(NC(=O)CC(=O)N/N=C/c2ccc(N(CCC#N)S(=O)(=O)c3ccccc3)cc2)cc1 | > 251 | > 251 µM | 
CC12CCC([C@H](N3CCOCC3)/C1=N\OCCN1CCCC1)C2(C)C (stereo partly specified) | > 251 | 138 µM | 
CCCn1c(SCC)c2cc3cc4ccccc4cc3cc2c1-c1nc(F)nc(F)n1 | > 30.9 | 22.4 µM | 
CCOP(=O)(Cc1c(Cl)c(Cl)c(CP(=O)(OCC)OCC)c(Cl)c1Cl)OCC | > 200 | 26.9 µM | 
Cc1ccc(S(=O)(=O)C(CC(=O)N2CCCC2)C(=O)c2ccccc2)cc1 (stereo unspecified) | > 93.3 | 15.5 µM | 
O=C(CCCn1ccnc1[N+](=O)[O-])NCCn1cnc([N+](=O)[O-])n1 | > 200 | > 200 µM | 
C/C(=C\c1ccc([N+](=O)[O-])cc1)C(=O)O | > 174 | > 174 µM | 
Cc1cn(C2CC(N=[N+]=[N-])C(COP(=O)(O)OCC3CCC(n4ccc(N)nc4=O)O3)O2)c(=O)[nH]c1=O (stereo unspecified) | 0.0468 | 20 µM | 
CCCCOP(=S)(OCCCC)OCCCC |  |  | inactive
Cc1c(-c2ccccc2)cc(O)c2nc3ccccc3n12 | > 200 | 19.5 µM | 
CC12CCC3(C1)[C@H](CC2=O)C[C@@H](OC(=O)c1ccccc1)C1C(C)(C(=O)O)CCC[C@@]13C (stereo partly specified) | > 295 | 13.5 µM | 
CNC(=O)C(C)NC(=O)C(Cc1ccccc1)NC(=O)c1ccccc1 (stereo unspecified) | > 200 | > 200 µM | 
O=C1C2C=CC1C1C3OC3C(=O)C21 (stereo unspecified) | > 708 | > 708 µM | 
CC(=O)ONc1nn2cc(-c3ccccc3)nc2s1 | > 200 | > 200 µM | 
CNC(=O)c1n[nH]nc1Sc1c([N+](=O)[O-])ncn1C |  |  | inactive
